Reference: PubChem BioAssay (NCI)
“And” between values parts separate entries of the source, which are not always exact repeats. Equal entries are not always repeated.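 Five concentrations, 48 hours, 96-well plates. Here, GI50 denotes the concentration required for 50% inhibition of growth. TGI: total growth inhibition.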

Legend:
Assay in all cases: NCI-60 cell line screen, 48 h
A549 NSCLC = test system: A549 NSCLC
K-562 leukemia = test system: K-562 leukemia
HL-60(TB) leukemia = test system: HL-60(TB) leukemia
SN12C renal = test system: SN12C renal
NCI-H23 lung = test system: NCI-H23 lung
OVCAR-3 ovarian = test system: OVCAR-3 ovarian
OVCAR-4 ovarian = test system: OVCAR-4 ovarian
HCT-15 colon = test system: HCT-15 colon
SF-295 CNS = test system: SF-295 CNS
M14 melanoma = test system: M14 melanoma
SNB-19 CNS = test system: SNB-19 CNS
COLO 205 colon = test system: COLO 205 colon
LOX IMVI melanoma = test system: LOX IMVI melanoma
PC-3 prostate = test system: PC-3 prostate
RPMI-8226 leukemia = test system: RPMI-8226 leukemia
SR leukemia = test system: SR leukemia
EKVX NSCLC = test system: EKVX NSCLC
HS 578T breast = test system: HS 578T breast
IGROV1 ovarian = test system: IGROV1 ovarian
CAKI-1 renal = test system: CAKI-1 renal
TK-10 renal = test system: TK-10 renal
SW-620 colon = test system: SW-620 colon
UACC-257 melanoma = test system: UACC-257 melanoma
HOP-62 NSCLC = test system: HOP-62 NSCLC
UACC-62 melanoma = test system: UACC-62 melanoma
MALME-3M melanoma = test system: MALME-3M melanoma
OVCAR-5 ovarian = test system: OVCAR-5 ovarian
UO-31 renal = test system: UO-31 renal
MDA-MB-435 = test system: MDA-MB-435
MCF7 breast = test system: MCF7 breast
RXF 393 renal = test system: RXF 393 renal
NCI-H460 lung = test system: NCI-H460 lung
786-0 renal = test system: 786-0 renal
HCC-2998 colon = test system: HCC-2998 colon
A498 renal = test system: A498 renal
MOLT-4 leukemia = test system: MOLT-4 leukemia
CCRF-CEM leukemia = test system: CCRF-CEM leukemia
NCI-H226 lung = test system: NCI-H226 lung
NCI-H522 lung = test system: NCI-H522 lung
SK-MEL-28 melanoma = test system: SK-MEL-28 melanoma
OVCAR-8 ovarian = test system: OVCAR-8 ovarian
SF-268 CNS = test system: SF-268 CNS
HT29 colon = test system: HT29 colon
HCT-116 colon = test system: HCT-116 colon
DU-145 prostate = test system: DU-145 prostate
ACHN renal = test system: ACHN renal
KM12 colon = test system: KM12 colon
BT-549 breast = test system: BT-549 breast
MDA-MB-231 breast = test system: MDA-MB-231 breast
U251 CNS = test system: U251 CNS
SNB-75 CNS = test system: SNB-75 CNS
SK-OV-3 ovarian = test system: SK-OV-3 ovarian
HOP-92 NSCLC = test system: HOP-92 NSCLC
SK-MEL-5 melanoma = test system: SK-MEL-5 melanoma
SF-539 CNS = test system: SF-539 CNS

Compound: Cc1ccnc2[nH]c(-c3cccc4ccccc34)cc(=O)c12
- GI50 (A549 NSCLC): 13.2 nM
- TGI (A549 NSCLC): > 100000 nM
- TGI (K-562 leukemia): 63900 nM
- TGI (HL-60(TB) leukemia): 6.97 nM
- GI50 (SN12C renal): 678 nM
- TGI (SN12C renal): > 100000 nM
- GI50 (NCI-H23 lung): 31.5 nM
- TGI (NCI-H23 lung): > 100000 nM
- TGI (OVCAR-3 ovarian): 11.5 nM
- GI50 (OVCAR-4 ovarian): 17600 nM
- TGI (OVCAR-4 ovarian): > 100000 nM
- GI50 (HCT-15 colon): 15.2 nM
- TGI (HCT-15 colon): > 100000 nM
- GI50 (SF-295 CNS): 10.7 nM
- TGI (SF-295 CNS): > 100000 nM
- GI50 (M14 melanoma): 13.2 nM
- TGI (M14 melanoma): > 100000 nM
- TGI (SNB-19 CNS): > 100000 nM
- GI50 (COLO 205 colon): 15 nM
- TGI (COLO 205 colon): 99.2 nM and 205 nM
- TGI (LOX IMVI melanoma): 17100 nM
- GI50 (PC-3 prostate): 19.9 nM
- TGI (RPMI-8226 leukemia): 28600 nM
- TGI (SR leukemia): 34800 nM
- GI50 (EKVX NSCLC): 15.1 nM
- TGI (EKVX NSCLC): 34600 nM
- GI50 (HS 578T breast): 17.3 nM
- TGI (HS 578T breast): 92700 nM
- GI50 (IGROV1 ovarian): 58.5 nM
- TGI (IGROV1 ovarian): 50000 nM
- TGI (CAKI-1 renal): > 100000 nM
- GI50 (TK-10 renal): 25800 nM
- TGI (TK-10 renal): > 100000 nM
- TGI (SW-620 colon): > 100000 nM
- TGI (UACC-257 melanoma): > 100000 nM
- GI50 (HOP-62 NSCLC): 7390 nM
- TGI (HOP-62 NSCLC): > 100000 nM
- TGI (UACC-62 melanoma): 26500 nM
- TGI (MALME-3M melanoma): 47.4 nM
- GI50 (OVCAR-5 ovarian): 81.3 nM
- TGI (OVCAR-5 ovarian): > 100000 nM
- GI50 (UO-31 renal): 36.8 nM
- TGI (UO-31 renal): 53800 nM
- TGI (MDA-MB-435): 0.495 nM
- GI50 (MCF7 breast): 43.1 nM
- TGI (MCF7 breast): 28000 nM
- TGI (RXF 393 renal): > 100000 nM
- TGI (NCI-H460 lung): > 100000 nM
- TGI (786-0 renal): > 100000 nM
- GI50 (HCC-2998 colon): 101 nM
- TGI (HCC-2998 colon): 363 nM and 707 nM
- TGI (A498 renal): 68.1 nM
- TGI (MOLT-4 leukemia): > 100000 nM
- TGI (CCRF-CEM leukemia): > 100000 nM
- TGI (NCI-H226 lung): 33900 nM
- TGI (NCI-H522 lung): 7.58 nM and 47.1 nM
- TGI (SK-MEL-28 melanoma): 40200 nM
- GI50 (OVCAR-8 ovarian): 16.9 nM
- TGI (OVCAR-8 ovarian): 16000 nM
- GI50 (SF-268 CNS): 15800 nM
- TGI (SF-268 CNS): > 100000 nM
- TGI (HT29 colon): 78.5 nM and 62.8 nM
- TGI (HCT-116 colon): 14200 nM
- GI50 (DU-145 prostate): 28.4 nM
- TGI (DU-145 prostate): > 100000 nM
- GI50 (ACHN renal): 39 nM
- TGI (ACHN renal): > 100000 nM
- TGI (KM12 colon): 3850 nM
- TGI (BT-549 breast): 72000 nM
- GI50 (MDA-MB-231 breast): 65.6 nM
- TGI (MDA-MB-231 breast): 6800 nM

Compound: Nc1c(C(=O)Nc2ccccc2)sc2nc3c(cc12)C(O)CCC3 (stereo unspecified)
- GI50 (A549 NSCLC): 406 nM
- TGI (A549 NSCLC): > 100000 nM
- GI50 (K-562 leukemia): 196 nM
- TGI (K-562 leukemia): > 100000 nM
- GI50 (HL-60(TB) leukemia): 232 nM
- TGI (HL-60(TB) leukemia): 706 nM
- GI50 (SN12C renal): 559 nM
- TGI (SN12C renal): > 100000 nM
- GI50 (NCI-H23 lung): 665 nM
- TGI (NCI-H23 lung): > 100000 nM
- GI50 (OVCAR-3 ovarian): 344 nM
- TGI (OVCAR-3 ovarian): > 100000 nM
- GI50 (OVCAR-4 ovarian): 3660 nM
- TGI (OVCAR-4 ovarian): > 100000 nM
- GI50 (HCT-15 colon): 336 nM
- TGI (HCT-15 colon): > 100000 nM
- GI50 (SF-295 CNS): 297 nM
- TGI (SF-295 CNS): > 100000 nM
- GI50 (M14 melanoma): 281 nM
- TGI (M14 melanoma): > 100000 nM
- GI50 (SNB-19 CNS): 577 nM
- TGI (SNB-19 CNS): > 100000 nM
- GI50 (COLO 205 colon): 295 nM
- TGI (COLO 205 colon): 2630 nM
- GI50 (LOX IMVI melanoma): 638 nM
- TGI (LOX IMVI melanoma): > 100000 nM
- GI50 (PC-3 prostate): 325 nM
- TGI (PC-3 prostate): > 100000 nM
- GI50 (RPMI-8226 leukemia): 372 nM
- TGI (RPMI-8226 leukemia): > 100000 nM
- GI50 (SR leukemia): 168 nM
- TGI (SR leukemia): > 100000 nM
- GI50 (HS 578T breast): 362 nM
- TGI (HS 578T breast): > 100000 nM
- GI50 (IGROV1 ovarian): 650 nM
- TGI (IGROV1 ovarian): > 100000 nM
- GI50 (CAKI-1 renal): 349 nM
- TGI (CAKI-1 renal): > 100000 nM
- GI50 (TK-10 renal): > 100000 nM
- TGI (TK-10 renal): > 100000 nM
- GI50 (SW-620 colon): 371 nM
- TGI (SW-620 colon): > 100000 nM
- GI50 (U251 CNS): 362 nM
- TGI (U251 CNS): > 100000 nM
- GI50 (SNB-75 CNS): 278 nM
- TGI (SNB-75 CNS): > 100000 nM
- GI50 (SK-OV-3 ovarian): 439 nM
- TGI (SK-OV-3 ovarian): > 100000 nM
- GI50 (UACC-257 melanoma): > 100000 nM
- TGI (UACC-257 melanoma): > 100000 nM
- GI50 (HOP-62 NSCLC): 455 nM
- TGI (HOP-62 NSCLC): > 100000 nM
- GI50 (UACC-62 melanoma): 444 nM
- TGI (UACC-62 melanoma): > 100000 nM
- GI50 (MALME-3M melanoma): 256 nM
- TGI (MALME-3M melanoma): > 100000 nM
- GI50 (UO-31 renal): 689 nM
- TGI (UO-31 renal): > 100000 nM
- GI50 (HOP-92 NSCLC): 264 nM
- TGI (HOP-92 NSCLC): > 100000 nM
- GI50 (SK-MEL-5 melanoma): 407 nM
- TGI (SK-MEL-5 melanoma): 23900 nM
- GI50 (MCF7 breast): 241 nM
- TGI (MCF7 breast): > 100000 nM
- GI50 (RXF 393 renal): 349 nM
- TGI (RXF 393 renal): > 100000 nM
- GI50 (NCI-H460 lung): 355 nM
- TGI (NCI-H460 lung): > 100000 nM
- GI50 (786-0 renal): 623 nM
- TGI (786-0 renal): > 100000 nM
- GI50 (HCC-2998 colon): 1070 nM
- TGI (HCC-2998 colon): > 79300 nM
- GI50 (A498 renal): 273 nM
- TGI (A498 renal): > 100000 nM
- GI50 (MOLT-4 leukemia): 491 nM
- TGI (MOLT-4 leukemia): > 100000 nM
- GI50 (CCRF-CEM leukemia): 323 nM
- TGI (CCRF-CEM leukemia): > 100000 nM
- GI50 (NCI-H226 lung): 1270 nM
- TGI (NCI-H226 lung): > 100000 nM
- GI50 (NCI-H522 lung): 280 nM
- GI50 (OVCAR-8 ovarian): 471 nM
- TGI (OVCAR-8 ovarian): > 100000 nM
- GI50 (SF-268 CNS): 700 nM
- TGI (SF-268 CNS): > 100000 nM
- GI50 (HT29 colon): 323 nM
- GI50 (HCT-116 colon): 488 nM
- TGI (HCT-116 colon): > 100000 nM
- GI50 (DU-145 prostate): 355 nM
- TGI (DU-145 prostate): > 100000 nM
- GI50 (ACHN renal): 981 nM
- TGI (ACHN renal): > 100000 nM
- GI50 (KM12 colon): 440 nM
- TGI (KM12 colon): > 100000 nM
- GI50 (SF-539 CNS): 225 nM
- TGI (SF-539 CNS): 604 nM
- GI50 (BT-549 breast): 1240 nM
- TGI (BT-549 breast): > 100000 nM
- GI50 (MDA-MB-231 breast): 946 nM
- TGI (MDA-MB-231 breast): > 100000 nM
